Source: patent publication US20050100555A1, “Homing peptides” (KING'S COLLEGE LONDON An Institute Incorporated by Royal …, priority 2001, published 2005)
“Also recorded” adds a separate entry of the source. No end group written: not given here.

Assays:
human synovial grafts [1] = test: Synovial homing of single phage clones in SCID mice transplanted with human synovium; assay type: in vivo; settings: 1×10^11 pfu i.v., 15 minutes recirculation; for localization of phage clone to synovial grafts in comparison to strep-clone-1 phage control: SCID mice with human synovium grafts
Description: (§1) Selection in vivo of synovial specific phage.
Confirmation of synovial homing specificity in single phage clones displaying consensus motifs. 1×10^11 pfu (200 μL saline fmal volume) of three single phage clones (1.23, 2.10 and 3.1) displaying consensus motifs or the strep-clone-1 phage control were and injected intravenously in separate animals transplanted with human synovium as described in ‘Selection in vivo ofsynovial specific phage’. The number of study and control clone phage localising to synovial grafts was determined as described in the same section.

[2] = test system: human microvascular endothelium in synovial grafts; test: Assessment of graft localization of biotinylated peptides (ABC-AP immunohistology); assay type: in vivo; settings: for localisation of biotinylated peptide to synovial grafts (immunoreactivity): 500 μg/mouse with 3.1 phage clone, ABC-AP, Vector Red
Description: (§2) Competitive localisation to human synovial grafts of synthetic biotinylated peptide […] against the parent 3.1 phage clone. SCID mice were transplanted with human synovial tissue and injected intravenously, as describe above for the in vivo selection experiments, with 1×10^11 tpfu of 3.1 phage clone in presence or absence of increasing concentrations of the biotinylated CKSTHRDLC synthetic peptide (50, 250 and 500 μg/mouse in 200 μL dose volume) or the biotinylated CGTWSHPQC synthetic peptide control. Controls also included animals injected with 1×10^11 pfu of strep-clone-1 or biotin alone. After 15 minutes circulation time, mice were perfused and the number of phage in the transplants determined as described above. Histological analysis was performed as described below.
Assessment of graft localization of biotinylated peptides. The graft localisation of the biotinylated CKSTHRDLC synthetic peptide was assessed by using the alkaline phosphatase avidin biotin complex (ABC-AP) detection system (Dako, UK) and visualised by Vector Red substrate (Novacastra, UK).

[3] = test system: human synovial grafts (cognate synovial MVE ligand); test: Competitive localisation to human synovial grafts of synthetic biotinylated peptide against parent 3.1 phage clone; assay type: in vivo; settings: for effect on graft localisation of the 3.1 phage clone: 50, 250 and 500 μg/mouse with 3.1 phage clone
Description: as §1, §2

[4] = test system: human synovium and skin grafts (OA patient); settings: OA synovium and skin double transplants, 15 min recirculation
Description: To assess whether the synovial homing properties were due to the intrinsic characteristics of the synovium or related to the disease status (e.g. RA vs OA), pooled clones recovered from the last round of in vivo selection (3rd and 4th round of the experiments described above) were tested in recirculation studies in vivo using SCID animals double transplanted with skin and human synovium from a patient with OA. As previously, equivalent amounts of strep-clone-1 phage were injected intravenously into control animals.

human synovial grafts [5] = settings: 1×10^11 pfu i.v., double transplanted RA synovium and skin
Description: Selection in vivo of synovial specific phage. Synovial homing phage were isolated by 3-4 cycles of enrichment in SCID mice transplanted with human tissues at 4-6 weeks of age. Four weeks post-transplantation the pep-PDL library (1×10^11 pfu in 200 μL saline final volume) was injected into the tail vein of anaesthetized animals. After 15 minutes (in vivo phage circulation time), while under deep/terminal anaesthesia (Sagatal, 5 μg/mouse, Rhone Merieux, France) the mice were perfused via the left ventricle with approximately 50-100 mL of saline to ensure phage clearance from the blood pool. Grafts and various mouse organs were then extracted and divided into two aliquots, weighed and processed as necessary for phage recovery and histological analysis. The aliquot assigned for immunohistology was embedded in Optimal Cutting Temperature compound (OCT, Miles, Calif.), snap frozen in liquid nitrogen cooled isopentane (BDH) and stored at −70° C. until analysis. The aliquot used for phage recovery was washed three times in TBS (150 mM NaCl, 50 nm Tris, pH7.4, Sigma, Poole, UK) then homogenized in 1 ml of TBS containing protease inhibitor cocktail (Sigma). […] After a 37° C. overnight incubation the peptide phage, appearing as blue plaques, were counted and the yield of phage localising to each individual tissue determined. […]

murine kidney = test: Phage recovery from murine kidney in the competitive localisation experiment; assay type: in vivo, mouse; settings: with or without study or control peptide
Description: as §1, §2

Row | Substance | localization of phage clone to synovial grafts in comparison to strep-clone-1 phage control (human synovial grafts [1]) | localisation of biotinylated peptide to synovial grafts (immunoreactivity) [2] | effect on graft localisation of the 3.1 phage clone [3] | also measured
1 | CTHSSATQC [1.23] | significantly greater localization | – | – | –
2 | CKSTHDRLC (not fully specified; cysteine pairing not given here; also: biotinylated, site not given here) | – | strongly localises in vivo to synovial grafts | dramatically inhibits in a dose dependent fashion | site of peptide binding within synovial grafts (double staining with anti-human vWf-FITC) ([2]; 500 μg/mouse): specific immunoreactivity co-localising with human vasculature; also recorded: binds principally to human microvascular endothelium; inhibition of graft localisation of the parent 3.1 phage clone ([3]; at maximal dose (500 μg/mouse i.v.), 15 minutes circulation): over 80%
3 | CGTWSHPQC (cysteine pairing not given here; also: biotinylated, site not given here) [reference compound] | – | no specific immunoreactivity | no significant effect | –
4 | CDRLNHQFC [2.10] | significantly greater localization | – | – | –
5 | C-G-T-W-S-H-P-Q-C [strep-clone-1] | – | – | – | number of phage recovered from synovial grafts versus skin grafts [4]: virtually the same; localisation of phage to synovial grafts, skin grafts and mouse kidney (human synovial grafts [5]): comparable low levels of localisation in all three tissues
6 | CKSTHDRLC [3.1] | significantly greater localization | – | – | level of phage localisation to murine kidney (murine kidney): only minimal ‘background’ localisation; increase of synovial graft localization over the control strep-clone-1 phage (human synovial grafts [1]): approximately 10 fold; graft localisation relative to strep-clone-1 control ([3]; phage alone, 15 minutes circulation): approximately nine times more
